In patent US20140193827A1 (TEVA PHARMACEUTICAL INDUSTRIES, LTD., priority 2013, published 2014):

Tested on: GA-primed murine splenocytes
Assay: Tolerance method for assessing process variability
[1] = microarray, splenocytes activated 24 hours

With glatiramer acetate [GA] the “AVG expression of SH3RF1, probe ILMN_2602597” value [1] was 7.302, the “AVG expression of SLC25A1, probe ILMN_2619846” value [1] was 8.032 and the “AVG expression of SLCO3A1, probe ILMN_2663230” value [1] was 8.007. For the same substance, the “AVG expression of SMOX, probe ILMN_2597030” value [1] was 8.19, the “AVG expression of SPN, probe ILMN_2574982” value [1] was 6.823 and the “AVG expression of STK4, probe ILMN_3004142” value [1] was 11.07. The “AVG expression of TARDBP, probe ILMN_3093089” value [1] was 8.366, the “AVG expression of TBCD, probe ILMN_2891506” value [1] was 9.516 and the “AVG expression of TNF, probe ILMN_2899863” value [1] was 8.846. The “AVG expression of TNFAIP3, probe ILMN_1252202” value [1] was 9.205, the “AVG expression of TNIP1, probe ILMN_2417863” value [1] was 10.34 and the “AVG expression of UBAC2, probe ILMN_2484838” value [1] was 8.614. The “AVG expression of UBAC2, probe ILMN_2949605” value [1] was 10.08, the “AVG expression of UBE2L6, probe ILMN_2431619” value [1] was 8.561 and the “AVG expression of UCHL5, probe ILMN_1240153” value [1] was 8.74. For the same substance, the “AVG expression of VAMP4, probe ILMN_2516348” value [1] was 8.312, the “AVG expression of WDR68, probe ILMN_2546073” value [1] was 7.546 and the “AVG expression of ZBP1, probe ILMN_1228653” value [1] was 7.444. The “AVG expression CCND2” value (probe IIMN_2700166) was 11.38, the “AVG expression RFTN2” value (probe ILMN_1212653) was 7.109 and the “AVG expression ZFP318” value (probe ILMN_1212982) was 9.704. For the same substance, the “AVG expression TXNIP” value (probe ILMN_1213609) was 11.89, the “AVG expression SGK1” value (probe ILMN_1213954) was 9.667 and the “AVG expression IFITM1” value (probe ILMN_1214071) was 11.55. For the same substance, the “AVG expression SNX29” value (probe ILMN_1214294) was 7.713, the “AVG expression A530050E01RIK” value (probe ILMN_1214783) was 7.616 and the “AVG expression IL24” value (probe ILMN_1214841) was 7.762. The “AVG expression HSD11B1” value (probe ILMN_1214998) was 8.421, the “AVG expression LOC100046608” value (probe ILMN_1215796) was 7.035 and the “AVG expression CXCL9” value (probe ILMN_1215862) was 9.757. The “AVG expression APOE” value (probe ILMN_1216042) was 7.5268, the “AVG expression STIM1” value (probe ILMN_1216313) was 8.348 and the “AVG expression TPCN1” value (probe ILMN_1217102) was 8.543. For the same substance, the “AVG expression IFITM1” value (probe ILMN_1217180) was 11.85, the “AVG expression PKIB” value (probe ILMN_1217389) was 11.19 and the “AVG expression PRKACB” value (probe ILMN_1217408) was 11.88. For the same substance, the “AVG expression ITGAE” value (probe ILMN_1217629) was 7.553, the “AVG expression STAU2” value (probe ILMN_1217723) was 8.737 and the “AVG expression ITK” value (probe ILMN_1217899) was 7.055. For the same substance, the “AVG expression D230007K08RIK” value (probe ILMN_1217913) was 9.225, the “AVG expression SCO1” value (probe ILMN_1218036) was 9.072 and the “AVG expression TMIE” value (probe ILMN_1218037) was 8.752. The “AVG expression IFITM6” value (probe ILMN_1218181) was 6.28, the “AVG expression CD69” value (probe ILMN_1218240) was 11.83 and the “AVG expression IL18R1” value (probe ILMN_1218525) was 7.946. The “AVG expression A630054M16RIK” value (probe ILMN_1218533) was 8.828, the “AVG expression LOC385615” value (probe ILMN_1218717) was 8.213 and the “AVG expression EMB” value (probe ILMN_1218799) was 9.501. For the same substance, the “AVG expression 5031436O03RIK” value (probe ILMN_1219017) was 7.811, the “AVG expression LTK” value (probe ILMN_1219860) was 7.398 and the “AVG expression LOC623121” value (probe ILMN_1219896) was 9.039. For the same substance, the “AVG expression EBI2” value (probe ILMN_1220101) was 11.29, the “AVG expression CTSG” value (probe ILMN_1220236) was 7.594 and the “AVG expression TTC28” value (probe ILMN_1220397) was 7.127. For the same substance, the “AVG expression GM590” value (probe ILMN_1220788) was 8.022, the “AVG expression PSAT1” value (probe ILMN_1221048) was 10.49 and the “AVG expression TTYH3” value (probe ILMN_1221311) was 7.858. For the same substance, the “AVG expression LOC100048841” value (probe ILMN_1221516) was 7.303, the “AVG expression ADCY7” value (probe ILMN_1221530) was 8.272 and the “AVG expression ELA2” value (probe ILMN_1221700) was 6.367. For the same substance, the “AVG expression FCGRT” value (probe ILMN_1221819) was 8.525, the “AVG expression FAIM3” value (probe ILMN_1221820) was 13.69 and the “AVG expression PAQR7” value (probe ILMN_1222036) was 6.448. The “AVG expression UGT1A10” value (probe ILMN_1222543) was 6.383, the “AVG expression ROGDI” value (probe ILMN_1222821) was 8.291 and the “AVG expression INDO” value (probe ILMN_1223600) was 7.297. The “AVG expression SMPDL3A” value (probe ILMN_1224116) was 7.588, the “AVG expression SPSB1” value (probe ILMN_1224336) was 8.95 and the “AVG expression LOC380797” value (probe ILMN_1224473) was 8.096. The “AVG expression E130113K22RIK” value (probe ILMN_1224945) was 7.685, the “AVG expression PRKCB” value (probe ILMN_1225085) was 11.14 and the “AVG expression 4930519L02RIK” value (probe ILMN_1225132) was 7.525. The “AVG expression CDKN2D” value (probe ILMN_1225214) was 8.24, the “AVG expression FDPS” value (probe ILMN_1225730) was 12.65 and the “AVG expression MFSD2” value (probe ILMN_1225764) was 8.49. The “AVG expression GAB3” value (probe ILMN_1226514) was 7.563, the “AVG expression E030007N04RIK” value (probe ILMN_1226755) was 8.626 and the “AVG expression MAN2A2” value (probe ILMN_1226901) was 6.871. The “AVG expression D9ERTD392E” value (probe ILMN_1227277) was 9.413, the “AVG expression ITGB7” value (probe ILMN_1227434) was 9.885 and the “AVG expression LOC386545” value (probe ILMN_1227570) was 8.23. The “AVG expression IL12RB1” value (probe ILMN_1227900) was 8.071, the “AVG expression GMFG” value (probe ILMN_1227907) was 10.95 and the “AVG expression IFI30” value (probe ILMN_1228213) was 12.19. For the same substance, the “AVG expression A430106G13RIK” value (probe ILMN_1228804) was 6.595, the “AVG expression NGP” value (probe ILMN_1228832) was 8.125 and the “AVG expression C330023M02RIK” value (probe ILMN_1228917) was 9.763.
